Literature values in article PMC4999848 (Toxins, 2016).

How the values were obtained:
[1] = design: method as in PMID 26343882; settings: pigs, oral and intravenous (i.v) exposures; cited from earlier work
human fecal bacteria = settings: 48 h incubation; cited from earlier work
[2] = design: method as in PMID 26343882; settings: chickens, after oral or i.v treatment; cited from earlier work

**Q.** Which “Transformation into DON in vivo” value [1] does the source give for `CC(=O)O[C@@H]1C[C@]2(C)[C@@]3(CO)[C@H](O)C(=O)C(C)=C[C@H]3O[C@H]1[C@@]21CO1` [3ADON, 3-acetyldeoxynivalenol] here?
**A.** The value was “complete transformation into DON”.

**Q.** And the “% deacetylation” value (human fecal bacteria)?
**A.** The value was 78% ± 30%.

**Q.** Which “Transformation into DON in vivo” value [1] does the source give for `CC(=O)OC[C@]12[C@H](O)C(=O)C(C)=C[C@H]1O[C@@H]1[C@H](O)C[C@@]2(C)[C@]12CO2` [15ADON, 15-acetyldeoxynivalenol] here?
**A.** Its value is “complete transformation into DON”.

**Q.** And the “Acetylated form in blood” value [2]?
**A.** Its value is “traces of 15ADON are present in the blood”.
